From US8680012B2, “4-phenyl-pyrane-3,5-diones,4-phenyl-thiopyrane-3,6-diones and cyclohexanetriones as novel herbicides” (Syngenta Crop Protection LLC, priority 2006, dated 2014) come the findings set out here.

What all share (type): in vivo
Experiment [1] concerns Echinochloa crus-galli (ECHCG). In words: Example B pre-emergence herbicidal activity, glasshouse pot test. To be noted: 312 h, rate 250 g/ha, evaluated after 13 days, read-out: Pre-emergence activity ECHCG (100=total damage to plant; 0=no damage to plant). The gist of the method:
(§1)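 Pots, standard soil; spray at day 1 (pre) or day 8 (post); a.i. formulated in acetone/water 50:50 + 0.5% Tween 20; 24/16 °C, 14 h light, 65% RH, watered twice daily; visual rating at 13 d (0 = no damage, 100 = total damage).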

The subject of experiment [2] is Setaria faberi (SETFA). The experiment is described as above. Particulars: 312 h, rate 250 g/ha, evaluated after 13 days, read-out: Pre-emergence activity SETFA (100=total damage to plant; 0=no damage to plant). The method, boiled down:
as §1

In experiment [3] the test system is Alopecurus myosuroides (ALOMY). The description is as above. To be noted: 312 h, rate 250 g/ha, evaluated after 13 days, read-out: Pre-emergence activity ALOMY (100=total damage to plant; 0=no damage to plant). The method, boiled down:
as §1

In experiment [4] the test system is Avena fatua (AVEFA). The experiment is described as above. To be noted: 312 h, rate 250 g/ha, evaluated after 13 days, read-out: Pre-emergence activity AVEFA (100=total damage to plant; 0=no damage to plant). The method, boiled down:
as §1

The subject of experiment [5] is Amaranthus retroflexus (AMARE). The description is as above. Particulars: 312 h, rate 250 g/ha, evaluated after 13 days, read-out: Pre-emergence activity AMARE (100=total damage to plant; 0=no damage to plant). The method, boiled down: as §1
Experiment [6] relates to Echinochloa crus-galli (ECHCG). In words: Example B post-emergence herbicidal activity, glasshouse pot test. To be noted: 312 h, rate 250 g/ha, evaluated after 13 days, read-out: Post-emergence activity ECHCG (100=total damage to plant; 0=no damage to plant). The method, boiled down:
as §1

In experiment [7] the test system is Setaria faberi (SETFA). The description is as above. To be noted: 312 h, rate 250 g/ha, evaluated after 13 days, read-out: Post-emergence activity SETFA (100=total damage to plant; 0=no damage to plant). The method, boiled down:
as §1

Experiment [8] deals with Alopecurus myosuroides (ALOMY). The description is as above. To be noted: 312 h, rate 250 g/ha, evaluated after 13 days, read-out: Post-emergence activity ALOMY (100=total damage to plant; 0=no damage to plant). The method, boiled down:
as §1

Experiment [9] relates to Avena fatua (AVEFA). Described as above. Particulars: 312 h, rate 250 g/ha, evaluated after 13 days, read-out: Post-emergence activity AVEFA (100=total damage to plant; 0=no damage to plant). The gist of the method:
as §1

Experiment [10] concerns Amaranthus retroflexus (AMARE). The experiment is described as above. Particulars: 312 h, rate 250 g/ha, evaluated after 13 days, read-out: Post-emergence activity AMARE (100=total damage to plant; 0=no damage to plant). The method, boiled down:
as §1

On to `COc1ccc(-c2ccc(Cl)cc2F)cc1C1=C(O)C(C)(C)OC(C)(C)C1=O` [Compound A-103], for which the pest or weed control at 250 g/ha in experiment [1] is 0%; in experiment [2], 0%; in experiment [3], 0%; in experiment [4] it was 0%; in experiment [5], 0%; in experiment [6], 100%. In addition, the pest or weed control at 250 g/ha in experiment [7] came to 100%; in experiment [8], 10%; in experiment [9], 0%; in [10] it was 0%.
On to `Cc1ccc(-c2ccc(Cl)cc2Cl)cc1C1=C(O)C(C)(C)SC(C)(C)C1=O` [Compound C-6], for which the pest or weed control at 250 g/ha is 0% in experiment [1]; 0% in experiment [2]; 0% in experiment [3]; 0% in [4]; 0% in [5]; 60% in [6]. Further, the pest or weed control at 250 g/ha in [7] turned out to be 30%; in [8] it was 20%; in [9], 0%; in experiment [10] it was 40%.
As to `CCc1ccc(-c2ccc(Cl)cc2F)cc1C1=C(O)C(C)(C)OC(C)(C)C1=O` [Compound A-66], the pest or weed control at 250 g/ha in experiment [1] stood at 60%; in experiment [2] it was 50%; in experiment [3], 0%; in experiment [4], 40%; in experiment [5], 0%; in experiment [6], 100%. For the same compound, the pest or weed control at 250 g/ha worked out at 100% in experiment [7], 20% in [8], 30% in experiment [9] and 10% in [10].
Turning to `CCc1ccc(-c2ccc(Cl)c([N+](=O)[O-])c2)cc1C1=C(O)C(C)(C)OC(C)(C)C1=O` [Compound A-136], the pest or weed control at 250 g/ha in [1] amounted to 90%; in [2], 30%; in [3], 20%; in experiment [4], 80%; in experiment [5] it was 0%; in experiment [6], 100%. In addition, the pest or weed control at 250 g/ha amounted to 70% in experiment [7], 80% in experiment [8], 100% in experiment [9] and 0% in [10].
Consider `CCc1ccc(-c2ccc(Cl)c(F)c2)cc1C1=C(O)[C@]2(C)O[C@@H](CC2COC)C1=O` (stereo partly shown) [Compound A-127], for which the pest or weed control at 250 g/ha in experiment [1] worked out at 50%; in [2] it was 90%; in [3], 30%; in [4], 70%; in experiment [5], 0%; in experiment [6], 100%. The pest or weed control at 250 g/ha is 100% in experiment [7], 80% in experiment [8], 40% in experiment [9] and 0% in [10].
Regarding `CCc1ccc(-c2ccc(Cl)nc2)cc1C1=C(OC(C)=O)C(C)(C)OC(C)(C)C1=O` [Compound D-22], the pest or weed control at 250 g/ha in experiment [1] was 100%; in experiment [2], 100%; in experiment [3], 60%; in experiment [4] it was 50%; in experiment [5], 0%; in experiment [6], 100%. Further, the pest or weed control at 250 g/ha in [7] is 100%; in [8], 90%; in experiment [9], 100%; in experiment [10], 0%.
Consider `CCc1ccc(-c2ccc(Cl)c(F)c2)cc1C1=C(O)C(C)(C)SC(C)(C)C1=O` (single isomer, unassigned) [Compound C-5], for which the pest or weed control at 250 g/ha is 0% in [1]; 0% in experiment [2]; 0% in experiment [3]; 0% in experiment [4]; 0% in [5]; 100% in experiment [6]. The pest or weed control at 250 g/ha in experiment [7] amounted to 90%; in experiment [8], 70%; in [9], 70%; in [10] it was 0%.
For the compound `CC1(C)OC(C)(C)C(O)=C(c2cc(-c3ccc(Cl)cc3F)ccc2Cl)C1=O` [Compound A-141], the pest or weed control at 250 g/ha came to 100% in [1]; 80% in experiment [2]; 20% in experiment [3]; 30% in experiment [4]; 0% in experiment [5]; 100% in experiment [6]. In addition, the pest or weed control at 250 g/ha in experiment [7] turned out to be 80%; in [8], 50%; in [9] it was 50%; in [10], 0%.
On to `CCOC[C@]12CC[C@H](O1)C(=O)C(c1cc(-c3ccc(Cl)cc3)ccc1CC)=C2O` (single isomer, unassigned) [Compound A-124], for which the pest or weed control at 250 g/ha was determined as 70% in experiment [1]; 100% in experiment [2]; 50% in [3]; 60% in [4]; 0% in [5]; 100% in experiment [6]. In addition, the pest or weed control at 250 g/ha in experiment [7] was found to be 100%; in experiment [8], 80%; in experiment [9], 90%; in [10], 20%.
Turning to `CCc1ccc(-c2ccc(Cl)c(F)c2)cc1C1=C(O)C(C)(C)S(=O)(=O)C(C)(C)C1=O` [Compound C-13], the pest or weed control at 250 g/ha was 30% in [1]; 80% in experiment [2]; 20% in experiment [3]; 90% in experiment [4]; 0% in experiment [5]; 100% in experiment [6]. In addition, the pest or weed control at 250 g/ha was determined as 100% in experiment [7], 80% in experiment [8], 90% in experiment [9] and 20% in experiment [10].
As for `CCc1ccc(-c2ccc(Cl)cc2Cl)cc1C1=C(OC(=O)COC)C(C)(C)OC(C)(C)C1=O` [Compound D-24], the pest or weed control at 250 g/ha in experiment [1] was found to be 100%; in [2], 90%; in experiment [3], 0%; in experiment [4] it was 0%; in [5], 20%; in experiment [6] it was 100%. Further, the pest or weed control at 250 g/ha in experiment [7] was found to be 100%; in experiment [8], 0%; in [9], 20%; in experiment [10], 0%.
`CCc1ccc(-c2ccc(Cl)cc2)cc1C1=C(O)[C@@]2(C)C=C[C@H](O2)C1=O` [Compound A-62]: the pest or weed control at 250 g/ha was determined as 0% in experiment [1]; 60% in [2]; 20% in [3]; 20% in [4]; 0% in experiment [5]; 100% in experiment [6]. Besides, the pest or weed control at 250 g/ha in [7] amounted to 100%; in experiment [8], 70%; in experiment [9], 70%; in experiment [10] it was 0%.
Turning to `CCc1ccc(-c2ccc(Cl)cc2)cc1C1=C(O)[C@@]2(CC)CC[C@H](O2)C1=O` [Compound A-79], the pest or weed control at 250 g/ha is 80% in experiment [1]; 100% in experiment [2]; 40% in experiment [3]; 40% in experiment [4]; 0% in [5]; 100% in experiment [6]. Also, the pest or weed control at 250 g/ha in [7] is 100%; in experiment [8] it was 80%; in experiment [9] it was 50%; in experiment [10], 0%.
